Patent US11001590B2, “Pyrazolopyrimidine derivatives” (BAYER ANIMAL HEALTH GMBH, priority 2016, dated 2021)

Assays:
C. elegans Slo-1a = C. elegans Slo-1a (Caenorhabditis elegans, UniProt Q95V25); experiment: In vitro assay 1: C. elegans Slo-1a, action at a recombinant C. elegans CHO cell line (membrane potential measurement)
[1] = system: Dirofilaria immitis microfilariae; experiment: In vitro assay 3: Dirofilaria immitis microfilariae (DIROIM L1), motility; conditions: 72 h, reduction of motility vs negative control, 72 h incubation
[2] = log P by HPLC on reversed phase columns (Method L0; [a] acidic, [b] neutral range)
Description: Calibration was done with straight-chain alkan-2-ones (with 3 to 16 carbon atoms) with known log P values (measurement of log P values using retention times with linear interpolation between successive alkanones). Lambda-max-values were determined using UV-spectra from 200 nm to 400 nm and the peak values of the chromatographic signals.

C. elegans Slo-1a, sequence (Q95V25 whole entry): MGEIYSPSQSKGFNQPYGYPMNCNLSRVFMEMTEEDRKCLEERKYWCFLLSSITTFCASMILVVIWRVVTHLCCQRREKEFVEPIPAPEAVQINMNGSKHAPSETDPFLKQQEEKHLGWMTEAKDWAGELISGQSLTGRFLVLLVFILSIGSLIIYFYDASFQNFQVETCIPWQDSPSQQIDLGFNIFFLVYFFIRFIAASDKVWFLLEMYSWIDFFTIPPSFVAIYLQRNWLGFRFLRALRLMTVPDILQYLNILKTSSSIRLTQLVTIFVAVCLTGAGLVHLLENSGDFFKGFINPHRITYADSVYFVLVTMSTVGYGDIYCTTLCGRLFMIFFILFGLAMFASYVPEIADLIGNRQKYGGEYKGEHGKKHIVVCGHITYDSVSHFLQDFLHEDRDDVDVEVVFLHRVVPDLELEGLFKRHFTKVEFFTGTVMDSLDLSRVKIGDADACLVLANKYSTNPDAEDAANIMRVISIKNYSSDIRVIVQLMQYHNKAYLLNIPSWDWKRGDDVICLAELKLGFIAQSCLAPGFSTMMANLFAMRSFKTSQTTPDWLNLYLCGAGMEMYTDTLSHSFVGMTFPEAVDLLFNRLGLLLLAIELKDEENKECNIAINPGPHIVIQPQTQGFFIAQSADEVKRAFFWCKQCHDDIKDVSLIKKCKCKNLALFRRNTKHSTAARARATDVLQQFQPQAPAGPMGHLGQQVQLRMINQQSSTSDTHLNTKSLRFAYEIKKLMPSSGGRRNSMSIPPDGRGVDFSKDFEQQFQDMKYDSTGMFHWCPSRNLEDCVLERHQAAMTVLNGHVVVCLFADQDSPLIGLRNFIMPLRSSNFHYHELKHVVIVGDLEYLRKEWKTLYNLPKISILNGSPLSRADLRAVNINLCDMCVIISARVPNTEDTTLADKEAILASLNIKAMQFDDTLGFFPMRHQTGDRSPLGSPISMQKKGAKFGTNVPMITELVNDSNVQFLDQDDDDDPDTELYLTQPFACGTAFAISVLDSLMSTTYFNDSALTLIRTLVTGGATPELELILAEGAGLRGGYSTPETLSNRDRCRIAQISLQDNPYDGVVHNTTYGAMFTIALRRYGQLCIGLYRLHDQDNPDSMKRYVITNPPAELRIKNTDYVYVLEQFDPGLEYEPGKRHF

`CC(C)c1c(C(=O)N[C@H]2CCc3ccccc32)cnc2c(-c3cc(F)c(F)c(F)c3)c(C(F)(F)F)nn12` [Example 159] gave an EC50 (C. elegans Slo-1a) of 1000 nM, an EC50 [1] of under 10 µg/mL and a chromatographic logP [2] of 5.4.

In the case of `COc1cc(-c2c(C(F)(F)F)nn3c(C(C)C)c(C(=O)N[C@H]4CCc5ccccc54)cnc23)ccc1F` [Example 160], the EC50 (C. elegans Slo-1a) is reported as 100 nM, the EC50 [1] is reported as under 10 µg/mL and the chromatographic logP [2] is reported as 4.89.

`Cc1nn2c(C(C)C)c(C(=O)N[C@H]3CCc4ccccc43)cnc2c1-c1ccccc1` [Example 174] gave an EC50 (C. elegans Slo-1a) of 15.8 nM, an EC50 [1] of under 0.1 µg/mL and a chromatographic logP [2] of 4.59.

Molecule `Cc1nn2c(C(C)C)c(C(=O)N[C@H]3CCCc4ccccc43)cnc2c1-c1ccccc1` [Example 175] has an EC50 (C. elegans Slo-1a) of 63.1 nM, an EC50 [1] of under 10 µg/mL and a chromatographic logP [2] of 4.94.

With `Cc1nn2c(C(C)C)c(C(=O)N[C@H]3CCOc4ccccc43)cnc2c1-c1ccccc1` [Example 176] the EC50 (C. elegans Slo-1a) was 12.6 nM, the EC50 [1] was under 0.1 µg/mL and the chromatographic logP [2] was 4.28.

Molecule `COc1cccc(-c2c(C)nn3c(C(C)C)c(C(=O)N[C@H]4CCc5ccccc54)cnc23)n1` [Example 177, (S)—N-(2,3-Dihydro-1H-inden-1-yl)-7-isopropyl-3-(6-methoxypyridin-2-yl)-2-methylpyrazolo[1,5-a]pyrimidine-6-carboxamide] has an EC50 (C. elegans Slo-1a) of 158 nM, an EC50 [1] of under 10 µg/mL and a chromatographic logP [2] of 4.89.

With `Cc1nn2c(C(C)C)c(C(=O)N[C@H]3CCc4ccccc43)cnc2c1-c1cccc(F)n1` [Example 178] the EC50 (C. elegans Slo-1a) was 794 nM, the EC50 [1] was under 10 µg/mL and the chromatographic logP [2] was 4.6.

`Cc1nn2c(C(C)C)c(C(=O)N[C@H]3CCc4ccccc43)cnc2c1-c1cccc(C(F)(F)F)n1` [Example 179] gave an EC50 (C. elegans Slo-1a) of 398 nM, an EC50 [1] of under 10 µg/mL and a chromatographic logP [2] of 5.39.

With `Cc1nn2c(C(C)C)c(C(=O)N[C@H]3CCOc4ccccc43)cnc2c1-c1ccc(Cl)cc1Cl` [Example 180] the EC50 (C. elegans Slo-1a) was 7.94 nM, the EC50 [1] was under 0.1 µg/mL and the chromatographic logP [2] was 5.02.

In the case of `Cc1nn2c(C(C)C)c(C(=O)N[C@H]3CCc4ccccc43)cnc2c1-c1ccc(Cl)cc1Cl` [Example 181], the EC50 (C. elegans Slo-1a) is reported as 12.6 nM, the EC50 [1] is reported as under 0.1 µg/mL and the chromatographic logP [2] is reported as 5.31.

With `Cc1nn2c(C(C)C)c(C(=O)N[C@H]3CCCc4ccccc43)cnc2c1-c1ccc(Cl)cc1Cl` [Example 182] the EC50 (C. elegans Slo-1a) was 12.6 nM, the EC50 [1] was under 1 µg/mL and the chromatographic logP [2] was 5.59.

For `Cc1nn2c(C(C)C)c(C(=O)N[C@H]3CCc4ccccc43)cnc2c1-c1cccc(Cl)n1` [Example 183], the EC50 (C. elegans Slo-1a) was 398 nM, the EC50 [1] was under 10 µg/mL and the chromatographic logP [2] was 5.1.

`Cc1nn2c(C(C)C)c(C(=O)N[C@H]3CCOc4ccccc43)cnc2c1-c1cc(F)c(F)c(F)c1` [Example 185] showed an EC50 (C. elegans Slo-1a) of 12.6 nM, an EC50 [1] of under 1 µg/mL and a chromatographic logP [2] of 4.97.

Work on `Cc1nn2c(C(C)C)c(C(=O)N[C@H]3CCOc4ccccc43)cnc2c1-c1cc(F)c(Cl)c(F)c1` [Example 190] yielded an EC50 (C. elegans Slo-1a) of 25.1 nM, an EC50 [1] of under 1 µg/mL and a chromatographic logP [2] of 5.39.

With `Cc1nn2c(C(C)C)c(C(=O)N[C@H]3CCOc4ccccc43)cnc2c1-c1cccc(Cl)n1` [Example 195] the EC50 (C. elegans Slo-1a) was 158 nM, the EC50 [1] was under 10 µg/mL and the chromatographic logP [2] was 4.85.

Molecule `CC(C)c1c(C(=O)N[C@H]2CCOc3ccccc32)cnc2c(-c3cc(Cl)cc(Cl)c3)c(C(F)(F)F)nn12` [Example 196] has an EC50 (C. elegans Slo-1a) of 50.1 nM, an EC50 [1] of under 10 µg/mL and a chromatographic logP [2] of 5.84.

With `CC(C)c1c(C(=O)N[C@H]2CCOc3ccccc32)cnc2c(-c3cc(Cl)c(F)c(Cl)c3)c(C(F)(F)F)nn12` [Example 197] the EC50 (C. elegans Slo-1a) was 501 nM, the EC50 [1] was under 10 µg/mL and the chromatographic logP [2] was 5.48.

`CSc1nn2c(C(C)C)c(C(=O)N[C@H]3CCOc4ccccc43)cnc2c1-c1cc(Cl)cc(Cl)c1` [Example 202] gave an EC50 (C. elegans Slo-1a) of 25.1 nM, an EC50 [1] of under 10 µg/mL and a chromatographic logP [2] of 6.35.

`CSc1nn2c(C(C)C)c(C(=O)N[C@H]3CCc4ccccc43)cnc2c1-c1cc(Cl)cc(Cl)c1` [Example 203] gave an EC50 (C. elegans Slo-1a) of 200 nM, an EC50 [1] of under 10 µg/mL and a chromatographic logP [2] of 6.67.

`Cc1nn2c(C(C)C)c(C(=O)N[C@H]3CCOc4ccccc43)cnc2c1-c1cccc(Br)c1` [Example 204] showed an EC50 (C. elegans Slo-1a) of 15.8 nM, an EC50 [1] of under 0.1 µg/mL and a chromatographic logP [2] of 5.02.
